Data reported in US9682953B2, “Amide compounds, compositions and applications thereof” (Advinus Therapeutics Limited, priority 2011, dated 2017).
Like-named read-outs stand apart in the source and are kept apart here.

Experiments:
[1] = target: human Fatty Acid Amide Hydrolase (FAAH) (Homo sapiens (Human), UniProt O00519); experiment: biochemical; conditions: for IC50: read-out: hFAAH IC50; for inhibition at 0.1 µM: read-out: hFAAH % inhibition at 100 nM, 100 nM (tier I)
[2] = target: rat Fatty Acid Amide Hydrolase (FAAH) (Rattus norvegicus (Rat), UniProt P97612); experiment: FAAH in vitro fluorescence assay (AAMCA hydrolysis), rat enzyme; assay type: biochemical; conditions: rat FAAH; for IC50: read-out: rFAAH IC50; for inhibition at 0.1 µM: read-out: rFAAH % inhibition at 100 nM; for inhibition at 0.1 µM / rFAAH % inhibition at 100 nM: 100 nM (tier I)
Sequence of rat Fatty Acid Amide Hydrolase (FAAH) (P97612 30-579): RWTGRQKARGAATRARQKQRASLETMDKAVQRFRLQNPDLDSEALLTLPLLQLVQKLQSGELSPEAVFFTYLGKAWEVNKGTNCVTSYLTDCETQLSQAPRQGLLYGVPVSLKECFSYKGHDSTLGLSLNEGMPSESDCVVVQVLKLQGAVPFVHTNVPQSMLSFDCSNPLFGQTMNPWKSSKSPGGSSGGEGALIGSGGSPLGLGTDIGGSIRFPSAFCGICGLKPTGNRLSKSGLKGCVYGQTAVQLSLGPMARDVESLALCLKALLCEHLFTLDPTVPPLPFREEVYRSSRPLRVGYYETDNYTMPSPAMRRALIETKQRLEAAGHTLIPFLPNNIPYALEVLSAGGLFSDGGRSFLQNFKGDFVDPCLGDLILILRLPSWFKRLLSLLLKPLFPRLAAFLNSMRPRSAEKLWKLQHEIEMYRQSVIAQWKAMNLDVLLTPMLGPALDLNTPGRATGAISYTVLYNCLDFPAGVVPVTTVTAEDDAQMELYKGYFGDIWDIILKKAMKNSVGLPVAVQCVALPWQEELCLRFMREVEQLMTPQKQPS
Experimental: Material and Reagents: All reagents were purchased from Sigma-Aldrich unless specified. […] Chaperone protein groEL-groES in pGRO7 plasmid (Takara Bio Inc, Japan) was co-expressed with Fatty Acid Amide Hydrolase (FAAH) to improve solubility of the protein expressed in E coli. […] Briefly, the bacterial cultures in Luria Broth (2 L) were induced with arabinose (2 mM) and Isopropyl (β-D-1-thiogalactopyranoside, IPTG (1 mM), for 20 h at room temperature. The cultures were centrifuged at 1200×g for 10 min and the cell pellet was resuspended in 100 mL buffer containing of 20 mM NaPi (pH 7.4), 100 mM NaCl, Benzonase (500u), Aprotinin (1 μg/mL) and Leupeptin (1 μg/mL). Cells were lyzed by sonication (Amp 20%, Pulse 15 s×15, on ice) and the cell debris removed by centrifugation at 5000×g for 20 min. The supernatant was enriched via ultracentrifugation at 100,000×g for 1 h and the cell pellet was resuspended in 16 mL buffer containing 20 mM NaPi (pH 7.8), 500 mM NaCl, 1% Triton X-100. The resuspended cell extract was subjected to ultra-centrifugation at 100,000×g for 1 h and the enriched supernatant was used in the in vitro assay. All protein extraction steps were carried out on ice or at 4° C.
The assay was carried out in 200 μL volume in a 96-well black polystyrene plate (Greiner Bio-one, Germany). Each reaction consisted of human Fatty Acid Amide Hydrolase (FAAH) protein and 10 μM AAMCA in assay buffer containing 50 mM HEPES, 1 mM EDTA and 0.1% BSA, pH 7.4. The reaction was incubated with 2 μL of varying concentrations of inhibitor in DMSO (final concentration of DMSO 1%) with shaking for 1 min and monitored for increase in fluorescence in kinetic mode for 50 min. […] Rate of reaction as a function of the concentration of the inhibitor was used to determine the IC50 of the inhibitors. Data was analyzed using GraphPad Prism 5 (GraphPad Software Inc., San Diego, Calif.). The activity of the compounds for rat Fatty Acid Amide Hydrolase (FAAH) was evaluated as described above with rat Fatty Acid Amide Hydrolase (FAAH) protein and 10 μM AAMCA substrate.

Sequence of human Fatty Acid Amide Hydrolase (FAAH) (O00519 30-579): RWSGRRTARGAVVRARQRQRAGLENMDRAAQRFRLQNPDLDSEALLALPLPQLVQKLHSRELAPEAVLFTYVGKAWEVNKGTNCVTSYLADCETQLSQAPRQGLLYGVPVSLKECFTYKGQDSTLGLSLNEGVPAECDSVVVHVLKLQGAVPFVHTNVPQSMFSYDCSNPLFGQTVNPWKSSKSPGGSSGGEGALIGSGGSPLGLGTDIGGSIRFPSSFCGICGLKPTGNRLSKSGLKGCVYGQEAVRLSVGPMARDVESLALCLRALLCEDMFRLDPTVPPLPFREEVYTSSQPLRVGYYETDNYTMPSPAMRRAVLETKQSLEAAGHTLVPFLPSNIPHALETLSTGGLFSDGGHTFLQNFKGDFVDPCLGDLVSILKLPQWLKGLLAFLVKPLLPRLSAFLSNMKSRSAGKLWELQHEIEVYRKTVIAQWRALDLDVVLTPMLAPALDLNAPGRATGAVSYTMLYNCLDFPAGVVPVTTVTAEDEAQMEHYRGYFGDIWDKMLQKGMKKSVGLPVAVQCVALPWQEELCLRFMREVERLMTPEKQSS

Structure (SMILES)	IC50 ([1]; human FAAH)	IC50 [2]	also measured
O=C(NC1CCC(=Cc2cccc(Oc3ccc(C(F)(F)F)cn3)c2)CC1)c1cncc(-n2cccn2)c1 (stereo not drawn) [Example 2.B-7, 5-Pyrazol-1-yl-N-[4-[[3-[[5-(trifluoromethyl)-2-pyridyl]oxy]phenyl]methylene]cyclohexyl]pyridine-3-carboxamide]	6 nM	85 nM	
Nc1ccc(C(=O)NC2CCC(=Cc3cccc(Oc4ccc(C(F)(F)F)c(Cl)n4)c3)CC2)cn1 (stereo not drawn) [Example 2.E-20, 6-Amino-N-[4-[[3-[[6-chloro-5-(trifluoromethyl)-2-pyridyl]oxy]phenyl]methylene]cyclohexyl]pyridine-3-carboxamide]	3 nM	71 nM	
Nc1ccc(C(=O)NC2CCC(=Cc3cccc(Oc4ccc(C(F)(F)F)c(C5CC5)n4)c3)CC2)cn1 (stereo not drawn) [Example 2.E-19, 6-Amino-N-[4-[[3-[[6-cyclopropyl-5-(trifluoromethyl)-2-pyridyl]oxy]phenyl]methylene]cyclohexyl]pyridine-3-carboxamide]			inhibition at 0.1 µM ([1]; human FAAH): 40%; inhibition at 0.1 µM [2]: 40%
O=C(NC1CCC(=Cc2cccc(Oc3ccc(C(F)(F)F)cn3)c2)CC1)c1ccc(-c2cc[nH]n2)nc1 (stereo not drawn) [Example 2.B-4, 6-(1H-Pyrazol-3-yl)-N-[4-[[3-[[5-(trifluoromethyl)-2-pyridyl]oxy]phenyl]methylene]cyclohexyl]pyridine-3-carboxamide]	2 nM	11 nM	
Cc1nc(Oc2cccc(C=C3CCC(NC(=O)c4c[nH]nc4C(F)(F)F)CC3)c2)ccc1C(F)(F)F (stereo not drawn) [Example 2.E-18, N-[4-[[3-[[6-Methyl-5-(trifluoromethyl)-2-pyridyl]oxy]phenyl]methylene]cyclohexyl]-3-(trifluoromethyl)-1H-pyrazole-4-carboxamide]	13 nM		inhibition at 0.1 µM [2]: 55%
O=C(NC1CCC(=Cc2cccc(Oc3ccc(C(F)(F)F)cn3)c2)CC1)c1cccnn1 (single isomer, unassigned; (+)) [Example 20.A-15, (+)-N-[4-[[3-[[5-(trifluoromethyl)-2-pyridyl]oxy]phenyl]methylene]cyclohexyl]pyridazine-3-carboxamide]		408 nM	IC50 [1]: 431 nM
Cc1ncccc1C(=O)NC1CCC(=Cc2cccc(Oc3ccc(C(F)(F)F)cn3)c2)CC1 (stereo not drawn) [Example 2.A-28, 2-Methyl-N-[4-[[3-[[5-(trifluoromethyl)-2-pyridyl]oxy]phenyl]methylene]cyclohexyl]pyridine-3-carboxamide]	31 nM		rFAAH % inhibition at 100 nM [2]: No inhibition at 100 nM
O=C(NC1CCC(=Cc2cccc(Oc3ccc(C(F)(F)F)cn3)c2)CC1)c1ccc(-c2cn[nH]c2)nc1 (stereo not drawn) [Example 2.B-5, 6-(1H-Pyrazol-4-yl)-N-[4-[[3-[[5-(trifluoromethyl)-2-pyridyl]oxy]phenyl]methylene]cyclohexyl]pyridine-3-carboxamide]	2 nM	9 nM	
Cn1cc(C(=O)NC2CCC(=Cc3cccc(Oc4ccc(C(F)(F)F)cn4)c3)CC2)cn1 (stereo not drawn) [Example 2.A-18, 1-Methyl-N-[4-[[3-[[5-(trifluoromethyl)-2-pyridyl]oxy]phenyl]methylene]cyclohexyl]pyrazole-4-carboxamide]			inhibition at 0.1 µM ([1]; human FAAH): 45%; inhibition at 0.1 µM [2]: 38%
O=C(NC1CCC(=Cc2cccc(Oc3ccc(C(F)(F)F)cn3)c2)CC1)c1c[nH]nc1C(F)(F)F (single isomer, unassigned; (+)) [Example 20.A-7, (+)-3-(Trifluoromethyl)-N-[4-[[3-[[5-(trifluoromethyl)-2-pyridyl]oxy]phenyl]methylene]cyclohexyl]-1H-pyrazole-4-carboxamide]			IC50 [1]: 67 nM; inhibition at 10 µM ([2]; read-out: rFAAH % inhibition at 10 uM, 10 uM): 85%
O=C(NC1CCC(=Cc2cccc(Oc3ccc(C(F)(F)F)cn3)c2)CC1)c1ccnnc1 (stereo not drawn) [Example 2.A-17, N-[4-[[3-[[5-(Trifluoromethyl)-2-pyridyl]oxy]phenyl]methylene]cyclohexyl]pyridazine-4-carboxamide]	10 nM		inhibition at 0.1 µM [2]: 14%
O=C(NC1CCC(=Cc2cccc(Oc3ccc(C(F)(F)F)cn3)c2)CC1)c1ccncc1 (stereo not drawn) [Example 2.A-8, N-[4-[[3-[[5-(Trifluoromethyl)-2-pyridyl]oxy]phenyl]methylene]cyclohexyl]pyridine-4-carboxamide]	14 nM		inhibition at 0.1 µM [2]: 14%
O=C(NC1CCC(=Cc2cccc(Oc3ccc(C(F)(F)F)cn3)c2)CC1)c1cn[nH]c1 (single isomer, unassigned; (-)) [Example 20.A-12, (−)-N-[4-[[3-[[5-(trifluoromethyl)-2-pyridyl]oxy]phenyl]methylene]cyclohexyl]-1H-pyrazole-4-carboxamide]	1.7 nM	35.5 nM	
Cc1cc(C(=O)NC2CCC(=Cc3cccc(Oc4ccc(C(F)(F)F)cn4)c3)CC2)cnc1N (single isomer, unassigned; (-)) [Example 20.A-6, (−)-6-Amino-5-methyl-N-[4-[[3-[[5-(trifluoromethyl)-2-pyridyl]oxy]phenyl]methylene]cyclohexyl]pyridine-3-carboxamide]	1 nM	10 nM	
CNc1ccc(C(=O)NC2CCC(=Cc3cccc(Oc4ccc(C(F)(F)F)cn4)c3)CC2)cn1 (stereo not drawn) [Example 5.A-1, 6-(Methylamino)-N-[4-[[3-[[5-(trifluoromethyl)-2-pyridyl]oxy]phenyl]methylene]cyclohexyl]pyridine-3-carboxamide]		11 nM	IC50 [1]: 4 nM
Cc1nc(Oc2cccc(C=C3CCC(NC(=O)c4ccc(N)nc4)CC3)c2)ccc1C(F)(F)F (stereo not drawn) [Example 2.E-17, 6-Amino-N-[4-[[3-[[6-methyl-5-(trifluoromethyl)-2-pyridyl]oxy]phenyl]methylene]cyclohexyl]pyridine-3-carboxamide]		27 nM	IC50 [1]: 3 nM
Cc1ccc(C(=O)NC2CCC(=Cc3cccc(Oc4ccc(C(F)(F)F)cn4)c3)CC2)c(C)n1 (stereo not drawn) [Example 2.A-37, 2,6-Dimethyl-N-[4-[[3-[[5-(trifluoromethyl)-2-pyridyl]oxy]phenyl]methylene]cyclohexyl]pyridine-3-carboxamide]	57 nM		rFAAH % inhibition at 100 nM [2]: No inhibition at 100 nM
O=C(Nc1cnccn1)C1CCC(=Cc2cccc(Oc3ccc(C(F)(F)F)cn3)c2)CC1 (stereo not drawn) [Example 1.A-3, N-Pyrazin-2-yl-4-[[3-[[5-(trifluoromethyl)-2-pyridyl]oxy]phenyl]methylene]cyclohexanecarboxamide]	9 nM	44 nM	
Cc1ccn(-c2ccc(C(=O)NC3CCC(=Cc4cccc(Oc5ccc(C(F)(F)F)cn5)c4)CC3)cn2)n1 (stereo not drawn) [Example 2.B-9, 6-(3 -Methylpyrazol-1-yl)-N-[4-[[3-[[5-(trifluoromethyl)-2-pyridyl]oxy]phenyl]methylene]cyclohexyl]pyridine-3-carboxamide]	9 nM	22 nM	
Cc1n[nH]c(C)c1C(=O)NC1CCC(=Cc2cccc(Oc3ccc(C(F)(F)F)cn3)c2)CC1 (stereo not drawn) [Example 2.A-35, 3,5-Dimethyl-N-[4-[[3-[[5-(trifluoromethyl)-2-pyridyl]oxy]phenyl]methylene]cyclohexyl]-1H-pyrazole-4-carboxamide]			IC50 [1]: 29 nM; inhibition at 0.1 µM [2]: 38%
Nc1ccc(C(=O)NC2CCC(=Cc3cccc(Oc4ccc(C(F)(F)F)cn4)c3)CC2)cn1 (stereo not drawn) [Example 2.C-1, 6-Amino-N-[4-[[3-[[5-(trifluoromethyl)-2-pyridyl]oxy]phenyl]methylene]cyclohexyl]pyridine-3-carboxamide]		31 nM	IC50 [1]: 5 nM
